Data published in patent US20200045965A1, “METHOD FOR THE CONTROL OF PLANT BACTERIAL DISEASES USING CARBOXAMIDE DERIVATIVES” (BAYER CROPSCIENCE AKTIENGESELLSCHAFT, priority 2016, published 2020).

Columns and labels:
[1] = log P by HPLC on reversed-phase column (EEC Directive 79/831 Annex V.A8); format: physicochemical; settings: HPLC C18, 40° C., 0.1% aqueous formic acid and acetonitrile
Method: Table 1 provides the log P and NMR data (^1H) of compounds A1 to A20.
In table 1, the log P values were determined in accordance with EEC Directive 79/831 Annex V.A8 by HPLC (High Performance Liquid Chromatography) on a reversed-phase column (C 18), using the method described below:
Temperature: 40° C.; Mobile phases: 0.1% aqueous formic acid and acetonitrile; linear gradient from 10% acetonitrile to 90% acetonitrile.
Calibration was carried out using unbranched alkan-2-ones (comprising 3 to 16 carbon atoms) with known log P values (determination of the log P values by the retention times using linear interpolation between two successive alkanones). lambda-max-values were determined using UV-spectra from 200 nm to 400 nm and the peak values of the chromatographic signals.

Pseudomonas syringae = assay: Field trials in vivo against Pseudomonas syringae on coffee tree, foliar spray
Method: EXAMPLE 1: TEST IN VIVO AGAINST PSEUDOMONAS SYRINGAE (COFFEE)
Two field trials were conducted to find out the efficacy of N-(5-chloro-2-isopropylbenzyl)-N-cyclopropyl-3-(difluoromethyl)-5-fluoro-1-methyl-1H-pyrazole-4-carboxamide (compound A5) against bacteria (Pseudomonas syringae) when sprayed on leaves of coffee tree.
The field trials were randomized, had 3 replicates and plot size was 20 m. The product was applied as an EC 100—formulation in a spray sequence consisting of three foliar applications, beginning in the growth stage EC59. The sprays were done with an interval of approximately 4 weeks (between treatments). About 3 and 11 weeks after the third application the efficacy of the compound against the bacterial pathogen Pseudomonas syringae was visually assessed as incidence of infested leaf rosettes or branches per plot (in %). Then the incidence values were converted into control (% Abbott).

Xanthomonas spp. = assay: Field trial in vivo against bacterial leaf streak on spring wheat, foliar spray; parameters: species or system Xanthomonas translucens
Method: EXAMPLE 2: TEST IN VIVO AGAINST XANTHOMONAS TRANSLUCENS (WHEAT)
Field trials were conducted to test the efficacy of N-(5-chloro-2-isopropylbenzyl)-N-cyclopropyl-3-(difluoromethyl)-5-fluoro-1-methyl-1H-pyrazole-4-carboxamide (compound A5) in combination with the commercial standard Prosaro (a 1:1 combination of Prothioconazole and Tebuconazole) against bacterial leaf streak caused by Xanthomonas spp. when sprayed on leaves. A control without compound A5 was tested in same conditions.
The field trials were randomized, had 4 replicates and plot size was 15.24 m^2. Fertilization, herbicide- and insecticide applications were carried out according to the local agricultural practice.
N-(5-chloro-2-isopropylbenzyl)-N-cyclopropyl-3-(difluoromethyl)-5-fluoro-1-methyl-1H-pyrazole-4-carboxamide was applied as SC 280 formulation in 3 rates in combination with the commercial standard Prosaro. Test was conducted in a Spring wheat which was treated in growth stage EC 61 with one foliar application.
22 days after application the efficacy of the tested products against the bacterial leaf streak caused by Xanthomonas spp. was visually assessed. The effect was evaluated as preservation of remaining green leaves (GRNLVS) in a scale from 1-6 (meaning 1 best and 6 worst green leaf preservation)

N-cyclopropyl-3-(difluoromethyl)-5-fluoro-N-(2-isopropylbenzyl)-1-methyl-1H-pyrazole-4-carbothio-amide [Compound A20]
logP [1]: 4.36

CC(C)c1ccc(Cl)cc1CN(C(=O)c1c(C(F)F)nn(C)c1F)C1CC1 [Compound A5, N-(5-chloro-2-isopropylbenzyl)-N-cyclopropyl-3-(difluoromethyl)-5-fluoro-1-methyl-1H-pyrazole-4-carboxamide]
effect on bacterial disease caused by Pseudomonas syringae in coffee (conclusion in words) (Pseudomonas syringae; based on the two field trials): suppresses the bacterial disease | ABBOTT (%) leaf rosette 21 DA3 (Pseudomonas syringae; coffee, first trial (Table 1), 75 g a.i./ha, 21 days after third application): 39.2% | ABBOTT (%) branch 74 DA3 (Pseudomonas syringae; coffee, first trial (Table 1), 75 g a.i./ha, 74 days after third application): 45% | LEAF ROSETTE INCIDENCE (%) 21 DA3 (Pseudomonas syringae; coffee, first trial (Table 1), 75 g a.i./ha, EC 100, three foliar applications, 21 days after third application, untreated 12.2): 7.4% | ABBOTT (%) leaf rosette 20 DA3 (Pseudomonas syringae; coffee, second trial (Table 2), 75 g a.i./ha, 20 days after third application): 65.2% | LEAF ROSETTE INCIDENCE (%) 20 DA3 (Pseudomonas syringae; coffee, second trial (Table 2), 75 g a.i./ha, 20 days after third application, untreated 3.5): 1.2% | suppressing bacterial leaf streak caused by Xanthomonas spp. (conclusion in words) (Xanthomonas spp.): proves the efficiency
